Among the data in patent US8791148B2, “Substituted benzimidazolone derivatives, medicaments comprising them and their use” (AbbVie Deutschland GmbH & Co. KG, priority 2006, dated 2014) are Ki values, retold here.

Each structure is given as a SMILES string. pKi: −log10 of the molar value.

The target in this test is T1, human vasopressin V1b receptor (Homo sapiens, UniProt P47901).
T1 construct: expressed in transfected cells; host or cells: CHO-K1 (cell line hV1b-3H2_CHO), membrane preparation
T1 sequence (P47901 1-424): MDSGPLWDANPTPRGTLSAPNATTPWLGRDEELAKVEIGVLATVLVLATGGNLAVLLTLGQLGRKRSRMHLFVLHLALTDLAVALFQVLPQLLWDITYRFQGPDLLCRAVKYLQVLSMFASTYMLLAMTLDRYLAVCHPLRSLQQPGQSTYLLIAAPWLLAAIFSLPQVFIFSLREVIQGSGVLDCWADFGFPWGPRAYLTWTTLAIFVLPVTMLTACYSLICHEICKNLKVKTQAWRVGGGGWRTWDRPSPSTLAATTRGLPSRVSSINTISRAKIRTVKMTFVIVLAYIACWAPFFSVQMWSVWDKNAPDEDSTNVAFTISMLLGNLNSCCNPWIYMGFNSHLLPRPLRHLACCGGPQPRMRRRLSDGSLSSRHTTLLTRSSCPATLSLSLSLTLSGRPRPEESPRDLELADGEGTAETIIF
The test is described as follows: Vasopressin V1b receptor binding assay. Conditions: membranes from CHO-K1 cells with stably expressed human V1b receptors; displacement of 1.5 nM 3H-AVP; read-out: V1b receptor affinity (affinity constant Ki). The method, boiled down:
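Ki values come from nonlinear regression of triplicate scintillation counts after filtration. Test compound (2% DMSO in the mixture) and radioligand were incubated 60 min at room temperature with human V1b membranes in pH 7.4 Tris buffer with 10 mM MgCl2 and 0.1% BSA. Nonspecific binding was set with 1 uM AVP.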
As to `CCCN1CCN([C@H]2CCN(C(=O)C(c3ccccc3)n3c(=O)n(S(=O)(=O)c4ccccc4OC)c4ccc(C#N)cc43)C2)CC1` (stereo partly drawn) [Example 205, 1-(2-Methoxybenzenesulfonyl)-2-oxo-3-{2-oxo-1-phenyl-2-[(S)-3-(4-propylpiperazin-1-yl)pyrrolidin-1-yl]ethyl}-2,3-dihydro-1H-benzimidazole-5-carbonitrile], the pKi (commonly the Ki on a negative log10 scale, so that one unit is a factor of ten) is 5.00 to 6.30.
For `COc1ccc(S(=O)(=O)n2c(=O)n(C(C(=O)N3CCC(NC4CCN(C)CC4)CC3)c3ccccc3)c3cc(C#N)ccc32)cc1` (centres unmarked) [Example 206, 1-(4-Methoxybenzenesulfonyl)-3-{2-[4-(1-methylpiperidin-4-ylamino)piperidin-1-yl]-2-oxo-1-phenylethyl}-2-oxo-2,3-dihydro-1H-benzimidazole-5-carbonitrile] the value was more than 7.00; for `COc1ccc(S(=O)(=O)n2c(=O)n(C(C(=O)N3CC[C@H](NC4CCN(C)CC4)C3)c3ccccc3)c3cc(C#N)ccc32)cc1` (stereo partly drawn) [Example 207, 1-(4-Methoxybenzenesulfonyl)-3-{2-[(S)-3-(1-methylpiperidin-4-ylamino)-pyrrolidin-1-yl]-2-oxo-1-phenylethyl}-2-oxo-2,3-dihydro-1H-benzimidazole-5-carbonitrile], more than 7.00; for `COc1ccc(S(=O)(=O)n2c(=O)n(C(C(=O)N3CC[C@H](NC4CCN(C(C)C)CC4)C3)c3ccccc3)c3cc(C#N)ccc32)cc1` (stereo partly drawn) [Example 208, 3-{2-[(S)-3-(1-Isopropylpiperidin-4-ylamino)pyrrolidin-1-yl]-2-oxo-1-phenylethyl}-1-(4-methoxybenzenesulfonyl)-2-oxo-2,3-dihydro-1H-benzimidazole-5-carbonitrile], more than 7.00.
On to `CCN1CCC(N[C@H]2CCN(C(=O)C(c3ccccc3)n3c(=O)n(S(=O)(=O)c4ccc(OC)cc4)c4ccc(C#N)cc43)C2)CC1` (stereo partly drawn) [Example 209, 3-{2-[(S)-3-(1-Ethylpiperidin-4-ylamino)pyrrolidin-1-yl]-2-oxo-1-phenylethyl}-1-(4-methoxybenzenesulfonyl)-2-oxo-2,3-dihydro-1H-benzimidazole-5-carbonitrile], for which the pKi is more than 7.00.
In the case of `CCCN1CCC(N[C@H]2CCN(C(=O)C(c3ccccc3)n3c(=O)n(S(=O)(=O)c4ccc(OC)cc4)c4ccc(C#N)cc43)C2)CC1` (stereo partly drawn) [Example 210, 1-(4-Methoxybenzenesulfonyl)-2-oxo-3-{2-oxo-1-phenyl-2-[(S)-3-(1-propylpiperidin-4-ylamino)pyrrolidin-1-yl]ethyl}-2,3-dihydro-1H-benzimidazole-5-carbonitrile], the pKi is more than 7.00.
For `COc1ccc(S(=O)(=O)n2c(=O)n(C(C(=O)N3CC[C@H](N(C)C4CCN(C)CC4)C3)c3ccccc3)c3cc(C#N)ccc32)cc1` (stereo partly drawn) [Example 211, 1-(4-Methoxybenzenesulfonyl)-3-(2-{(S)-3-[methyl-(1-methylpiperidin-4-yl)-amino]pyrrolidin-1-yl}-2-oxo-1-phenylethyl)-2-oxo-2,3-dihydro-1H-benzimidazole-5-carbonitrile] the value was more than 7.00; for `CCCN1CCN([C@H]2CCN(C(=O)C(c3ccccc3)n3c(=O)n(S(=O)(=O)c4ccc(C#N)cc4)c4ccc(C#N)cc43)C2)CC1` (stereo partly drawn) [Example 215, 1-(4-Cyano-benzenesulfonyl)-2-oxo-3-{2-oxo-1-phenyl-2-[(S)-3-(4-propylpiperazin-1-yl)-pyrrolidin-1-yl]ethyl}-2,3-dihydro-1H-benzoimidazole-5-carbonitrile], 6.30 to 7.00; for `COc1ccc(S(=O)(=O)n2c(=O)n(C(C(=O)N3CC[C@H](NC(=O)OC(C)(C)C)C3)c3ccccc3)c3cc(C#N)ccc32)cc1` (stereo partly drawn) [Example 216, ((S)-1-{2-[6-Cyano-3-(4-methoxy-benzenesulfonyl)-2-oxo-2,3-dihydrobenzoimidazol-1-yl]-2-phenyl-acetyl}-pyrrolidin-3-yl)-carbamic acid tert-butyl ester], 5.00 to 6.30.
Consider `COc1ccc(S(=O)(=O)n2c(=O)n(C(C(=O)N3CC[C@H](CN4CCN(Cc5ccccc5)CC4)C3)c3ccccc3)c3cc(C#N)ccc32)cc1` (stereo partly drawn) [Example 220, 3-{2-[(R)-3-(4-Benzyl-piperazin-1-ylmethyl)-pyrrolidin-1-yl]-2-oxo-1-phenylethyl}-1-(4-methoxy-benzenesulfonyl)-2-oxo-2,3-dihydro-1H-benzoimidazole-5-carbonitrile; compound with trifluoroacetic acid], for which the negative-log Ki (pKi) was more than 7.00.
For the compound `COc1ccc(S(=O)(=O)n2c(=O)n(C(C(=O)N3CC[C@@H](CN4CCN(Cc5ccccc5)CC4)C3)c3ccccc3)c3cc(C#N)ccc32)cc1` (stereo partly drawn) [Example 221, 3-{2-[(S)-3-(4-Benzyl-piperazin-1-ylmethyl)-pyrrolidin-1-yl]-2-oxo-1-phenylethyl}-1-(4-methoxy-benzenesulfonyl)-2-oxo-2,3-dihydro-1H-benzoimidazole-5-carbonitrile; compound with trifluoroacetic acid], the pKi was more than 7.00.
Regarding `COc1ccc(S(=O)(=O)n2c(=O)n(C(C(=O)N3CC[C@H](CN4CCNCC4)C3)c3ccccc3)c3cc(C#N)ccc32)cc1` (stereo partly drawn) [Example 226, 1-(4-Methoxy-benzenesulfonyl)-2-oxo-3-[2-oxo-1-phenyl-2-((R)-3-piperazin-1-ylmethyl-pyrrolidin-1-yl)-ethyl]-2,3-dihydro-1H-benzoimidazole-5-carbonitrile], the pKi was more than 7.00.
In the case of `CCN1CCN([C@H]2CCCN(C(=O)C(c3ccccc3)n3c(=O)n(S(=O)(=O)c4ccc(OC)cc4)c4ccc(C#N)cc43)C2)CC1` (stereo partly drawn) [Example 231, 3-{2-[(S)-3-(4-Ethyl-piperazin-1-yl)-piperidin-1-yl]-2-oxo-1-phenyl-ethyl}-1-(4-methoxy-benzenesulfonyl)-2-oxo-2,3-dihydro-1H-benzoimidazole-5-carbonitrile; compound with trifluoroacetic acid], the pKi is more than 7.00.
`CCCN1CCN([C@H]2CCN(C(=O)C(c3ccccc3)n3c(=O)n(S(=O)(=O)c4ccc(OCCF)cc4)c4ccc(C#N)cc43)C2)CC1` (stereo partly drawn) [Example 232, 1-[4-(2-Fluoro-ethoxy)-benzenesulfonyl]-2-oxo-3-{2-oxo-1-phenyl-2-[(S)-3-(4-propyl-piperazin-1-yl)-pyrrolidin-1-yl]-ethyl}-2,3-dihydro-1H-benzoimidazole-5-carbonitrile]: the pKi is 6.30 to 7.00.
Under `CCCN1CCN([C@H]2CCN(C(=O)C(c3ccccc3)n3c(=O)n(S(=O)(=O)c4ccc(OCC(F)F)cc4)c4ccc(C#N)cc43)C2)CC1` (stereo partly drawn) [Example 233, 1-[4-(2,2-Difluoro-ethoxy)-benzenesulfonyl]-2-oxo-3-{2-oxo-1-phenyl-2-[(S)-3-(4-propyl-piperazin-1-yl)-pyrrolidin-1-yl]-ethyl}-2,3-dihydro-1H-benzoimidazole-5-carbonitrile] stands more than 7.00.
For `CCCN1CCN([C@H]2CCN(C(=O)C(c3ccccc3)n3c(=O)n(S(=O)(=O)c4ccc(OCC(F)(F)F)cc4)c4ccc(C#N)cc43)C2)CC1` (stereo partly drawn) [Example 234, 2-oxo-3-{2-oxo-1-phenyl-2-[(S)-3-(4-propyl-piperazin-1-yl)-pyrrolidin-1-yl]-ethyl}1-[4-(2,2,2-trifluoro-ethoxy)-benzenesulfonyl]-2,3-dihydro-1H-benzoimidazole-5-carbonitrile] the value was 6.30 to 7.00.
Under `CCCN1CCN(C[C@H]2CCN(C(=O)C(c3ccccc3)n3c(=O)n(S(=O)(=O)c4ccc(OC)cc4)c4ccc(C#N)cc43)C2)CC1` (stereo partly drawn) [Example 235, 1-(4-Methoxy-benzenesulfonyl)-2-oxo-3-{2-oxo-1-phenyl-2-[(R)-3-(4-propylpiperazin-1-ylmethyl)-pyrrolidin-1-yl]-ethyl}-2,3-dihydro-1H-benzoimidazole-5-carbonitrile; compound with trifluoroacetic acid] stands more than 7.00; under `COc1ccc(S(=O)(=O)n2c(=O)n(C(C(=O)N3CC[C@H](CN4CCN(C)CC4)C3)c3ccccc3)c3cc(C#N)ccc32)cc1` (stereo partly drawn) [Example 236, 1-(4-Methoxy-benzenesulfonyl)-3-{2-[(R)-3-(4-methyl-piperazin-1-ylmethyl)-pyrrolidin-1-yl]-2-oxo-1-phenyl-ethyl}-2-oxo-2,3-dihydro-1H-benzoimidazole-5-carbonitrile; compound with trifluoroacetic acid], more than 7.00.
Regarding `CCN1CCN(C[C@H]2CCN(C(=O)C(c3ccccc3)n3c(=O)n(S(=O)(=O)c4ccc(OC)cc4)c4ccc(C#N)cc43)C2)CC1` (stereo partly drawn) [Example 237, 3-{2-[(R)-3-(4-Ethyl-piperazin-1-ylmethyl)-pyrrolidin-1-yl]-2-oxo-1-phenyl-ethyl}-1-(4-methoxy-benzenesulfonyl)-2-oxo-2,3-dihydro-1H-benzoimidazole-5-carbonitrile; compound with trifluoroacetic acid], the pKi was more than 7.00.
Turning to `COc1ccc(S(=O)(=O)n2c(=O)n(C(C(=O)N3CC[C@H](CN4CCN(C(C)C)CC4)C3)c3ccccc3)c3cc(C#N)ccc32)cc1` (stereo partly drawn) [Example 238, 3-{2-[(R)-3-(4-Isopropyl-piperazin-1-ylmethyl)-pyrrolidin-1-yl]-2-oxo-1-phenylethyl}-1-(4-methoxy-benzenesulfonyl)-2-oxo-2,3-dihydro-1H-benzoimidazole-5-carbonitrile; compound with trifluoroacetic acid], the pKi was more than 7.00.
